Assays:
progesterone receptors = molecular target: T1, progesterone receptors (Homo sapiens, UniProt P06401); details: literature; cited from earlier work
T1 sequence (P06401 1-933): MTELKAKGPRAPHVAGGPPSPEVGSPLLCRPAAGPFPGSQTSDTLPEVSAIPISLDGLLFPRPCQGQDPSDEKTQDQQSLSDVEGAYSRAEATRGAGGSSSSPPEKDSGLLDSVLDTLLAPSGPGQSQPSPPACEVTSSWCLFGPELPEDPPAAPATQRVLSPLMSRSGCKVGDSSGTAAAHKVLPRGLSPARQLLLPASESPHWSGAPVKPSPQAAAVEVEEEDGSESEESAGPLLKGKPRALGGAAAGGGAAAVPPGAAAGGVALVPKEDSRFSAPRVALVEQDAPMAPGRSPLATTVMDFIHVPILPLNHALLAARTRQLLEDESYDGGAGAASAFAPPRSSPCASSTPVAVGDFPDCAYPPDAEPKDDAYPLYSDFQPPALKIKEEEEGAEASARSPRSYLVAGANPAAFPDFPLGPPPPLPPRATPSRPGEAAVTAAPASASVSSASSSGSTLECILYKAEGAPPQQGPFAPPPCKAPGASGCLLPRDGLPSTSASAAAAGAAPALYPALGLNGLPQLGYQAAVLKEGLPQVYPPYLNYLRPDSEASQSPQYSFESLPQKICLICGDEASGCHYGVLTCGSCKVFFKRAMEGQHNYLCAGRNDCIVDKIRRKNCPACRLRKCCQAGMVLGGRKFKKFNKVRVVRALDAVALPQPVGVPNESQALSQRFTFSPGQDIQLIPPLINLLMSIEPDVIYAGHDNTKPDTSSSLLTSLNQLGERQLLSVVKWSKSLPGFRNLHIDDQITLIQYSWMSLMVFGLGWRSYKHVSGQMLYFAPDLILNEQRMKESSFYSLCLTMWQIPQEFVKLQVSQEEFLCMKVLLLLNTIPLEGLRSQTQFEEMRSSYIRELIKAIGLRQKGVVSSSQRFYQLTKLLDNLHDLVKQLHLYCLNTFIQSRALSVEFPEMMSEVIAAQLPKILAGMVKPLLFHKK

[1] = tested on: HPA axis activity in healthy control subject; assay: 2 days of a GR antagonist in healthy control subject under constant routine conditions, salivary cortisol; format: in vivo, human; details: 400 mg for two consecutive days, single healthy subject, FIG. 5
Protocol: In a separate experiment, the longitudinal effects of 2 days of a GR antagonist on melatonin and HPA axis activity was measured in healthy control subject during an inpatient stay under constant routine conditions. […] Salivary cortisol, ACTH and dim light melatonin were measured the evening/morning before and on the second evening/morning of medication. The design was created to include measures of the phase of night-time DLMO as well as measures of the morning response of the HPA axis, including timing of cortisol acrophase. The design was formulated to ascertain circadian phase shifting in a controlled setting with healthy subjects (as might occur in jet-lag or shift work). […] Salivary melatonin samples were insufficient.

In the case of `CC#C[C@]1(O)CC[C@H]2[C@@H]3CCC4=CC(=O)CCC4=C3[C@@H](c3ccc(N(C)C)cc3)C[C@@]21C` [mifepristone, 17-beta-hydroxy-11-beta-(4-dimethyl-aminophenyl)-17-alpha-(1-propynyl)-estra-4,9-dien-3-one], the “antagonist of progesterone receptors” value (progesterone receptors) is listed as “powerful antagonist”, the cortisol [1] is listed as “rise” and the “timing of the morning acrophase of cortisol” value [1] is listed as “delay”.

From US20070270393A1, “Methods and compositions for modulation of sleep cycle” (priority 2006, published 2007)
